Experimental data from patent US9511010B2, “Compounds useful in the treatment and/or care of the skin, hair and/or mucous membranes and their cosmetic or pharmaceutical compositions” (Lubrizol Advanced Materials, Inc., priority 2012, dated 2016).

Assays:
Assay type in all cases: cell-based
HDFa cells = test: Photoprotective effectiveness in human fibroblasts (Neutral Red viability after solar simulation irradiation); conditions: for Effectiveness Photoprotection (%): irradiated; for Cell viability: preincubated 1 hour, irradiated ~60 J/cm^2, irradiated control 50.72%
Experimental: HDFa cells were put in culture medium for 24 hours in 96-well plates to form monolayers. Afterwards the cells were preincubated in darkness with 0.5 mg/mL, 0.1 mg/mL, 0.01 mg/mL of Ac-L-Tyr-L-Glu-L-Lys-L-Leu-L-Gln-L-Val-NH2 (Ac-SEQ ID NO:22-NH2) in PBS or PBS alone (control) for 1 hour at 37° C. and humidified air with 5% CO2.
The cells were irradiated with a solar simulation lamp at ˜60 J/cm^2 for 210 min at room temperature. A control plate was kept in the dark for the same time at room temperature. Once irradiation was completed the culture medium was changed for a new one and the plates were incubated for another 24 hours.
The cell viability was determined with the Neutral Red dye, measuring the absorbency at 540 nm in a spectrophotometer.
The photoprotective effectiveness was determined by comparing the viability obtained in cells treated with Ac-L-Tyr-L-Glu-L-Lys-L-Leu-L-Gln-L-Val-NH2 (Ac-SEQ ID NO:22-NH2) with the irradiated and non-irradiated control cell response.

[1] = tested on: senescence-associated β-galactosidase (SA-β-Gal) in HDFa cells; test: Reduction of cell senescence in human fibroblasts (SA-β-Gal histochemical detection); conditions: for Proportion of positive SA-β-gal cells: 24 hours, HDF, control 27.28
Experimental: A widely used assay to evaluate cell senescence is histochemical detection of the activity, of the β-galactosidase, called SA-β-Gal. The activity of the β-galactosidase is derived from the increase in the lysosomal content of senescent cells, which enables the detection of the lysosomal β-galactosidase at pH 6.0. The β-galactosidase is considered a marker of senescence both in vitro and in vivo.
With this objective, HDFa cells from phase 4 of a person were seeded in 96-well plates at 10,000 cells/well in culture medium 106 supplemented with 2% LSGS. After 24 hours the culture medium was removed and the cells were treated with 0.025 mg/mL and 0.01 mg/mL of Ac-L-Tyr-L-Glu-L-Lys-L-Leu-L-Gln-L-Val-NH2 (Ac-SEQ ID NO:22-NH2) in culture medium 106 for another 24 hours at 37° C. and humidified air with 5% CO2.
As a positive control of cell senescence (old fibroblasts) HDFa from phase […] of a person were used treated with culture medium; as a negative control of cell senescence (juvenile fibroblasts) HDFa from phase 4 were used from a person treated with culture medium.
After the incubation period the activity of the senescence-associated β-galactosidase (SA-β-Gal) was determined with the Senescence Cells Histochemical Kit.

[2] = tested on: Adult human epidermal keratinocytes (HEKa); test: Profile of the gene expression of human epidermal keratinocytes (microarray); conditions: 0.1 mg/ml, 24 hours, vs untreated cells
Experimental: Adult human epidermal keratinocytes (HEKa) were seeded (15×10^4 cells/vial cells/vial T25 cm^2), and were incubated in complete Epilife medium for 7 days at 37° C. in an atmosphere with 5% CO2. After the incubation, the cells were treated for 24 hours at 37° C. in an atmosphere with 5% CO2 with 0.1 mg/ml of the compound Ac-L-Tyr-L-Glu-L-Lys-L-Leu-L-Gln-L-Val-NH2 (Ac-SEQ ID NO:22-NH2) in complete Epilife medium or in complete Epilife medium as a negative control. The incubations and the treatments were carried out in duplicate for each condition.
24 hours after the treatments, the cells were homogenized and the RNA was extracted and purified from each replica and each condition by means of the RNeasyPlus Mini kit by Qiagen. Briefly, RNases were inactivated from cells lysates and samples were passed through special RNA binding columns to eliminate contaminants and impurities and after several microcentrifugation washes, the purified RNA was eluted with 50 μl of ultrapure water. The purity, integrity and concentration of the RNA obtained was evaluated by means of spectrophotometry (Nanodrop) and with a bioanalyzer (Agilent Bioanalyzer).
The marking of the purified RNA was carried out as was the hybridization of the samples in a human gene expression microarray (ASurePrint G3, Agilent). The normalized values obtained with the treatment were compared with the normalized values obtained with the negative control to obtain genes with differential expression. Next, a parametric analysis of the data was carried out by means of the Bioconductor software. Then, the values obtained were evaluated by means of GSEA (Gene Set Analysis Enrichment) to group the genes with differential expression in terms of Gene Ontology. Biological Routes and most significant pathways with a False Discovery Rate (FDR) lower than 25% were selected.

Substance: Ac-YEKLQV-NH2 [Ac-SEQ ID NO: 22-NH2, Ac-L-Tyr-L-Glu-L-Lys-L-Leu-L-Gln-L-Val-NH2]
- Effectiveness Photoprotection (%) (HDFa cells; 0.01 mg/mL): 16.24%
- Cell viability (HDFa cells; 0.01 mg/mL): 58.96%
- Effectiveness Photoprotection (%) (HDFa cells; 0.1 mg/mL): 20.06%
- Cell viability (HDFa cells; 0.1 mg/mL): 60.90%
- Effectiveness Photoprotection (%) (HDFa cells; 0.5 mg/mL): 35.10%
- Cell viability (HDFa cells; 0.5 mg/mL): 68.52%
- Proportion of positive SA-β-gal cells ([1]; 0.01 mg/mL): 7.02
- Proportion of positive SA-β-gal cells ([1]; 0.025 mg/mL): 16.90
- Effect on proportion of cells containing β-galactosidase (in words) ([1]; HDFa): reduced the proportion of cells containing β-galactosidase
- % Expression induction, ACD ([2]; gene ACD, LONGEVITY, TELOMERE MAINTENANCE AND PROTECTION): 10.76%
- % Expression induction, AIF1 ([2]; gene AIF1, INFLAMMATION, ANTI-INFLAMMATORY RESPONSE): 19.02%
- % Expression induction, ANXA1 ([2]; gene ANXA1, INFLAMMATION, ANTI-INFLAMMATORY RESPONSE): 8.22%
- % Expression induction, ANXA4 ([2]; gene ANXA4, INFLAMMATION, ANTI-INFLAMMATORY RESPONSE): 17.69%
- % Expression induction, ANXA5 ([2]; gene ANXA5, INFLAMMATION, ANTI-INFLAMMATORY RESPONSE): 22.32%
- % Expression induction, ATM ([2]; gene ATM, CELL CYCLE): 48.53%
- % Expression induction, ATRX ([2]; gene ATRX, HELICASE ACTIVITY and ATPase ACTIVITY): 48.65%
- % Expression induction, BAG4 ([2]; gene BAG4, APOPTOSIS INHIBITION): 32.42%
- % Expression induction, BAX ([2]; gene BAX, APOPTOSIS INHIBITION): −60.73%
- % Expression induction, BCL2 ([2]; gene BCL2, APOPTOSIS INHIBITION): 59.91%
- % Expression induction, BCL2L2 ([2]; gene BCL2L2, APOPTOSIS INHIBITION): 32.49%
- % Expression induction, BIRC3 ([2]; gene BIRC3, APOPTOSIS INHIBITION): 16.84%
- % Expression induction, BIRC6 ([2]; gene BIRC6, APOPTOSIS INHIBITION): 73.14%
- % Expression induction, BNIP2 ([2]; gene BNIP2, APOPTOSIS INHIBITION): 30.68%
- % Expression induction, BNIP3L ([2]; gene BNIP3L, APOPTOSIS INHIBITION): 31.39%
- % Expression induction, CASP3 ([2]; gene CASP3, APOPTOSIS ACTIVATION): 31.18%
- % Expression induction, CDK7 ([2]; gene CDK7, DNA repair, Protein DNA Complex Assembly): 14.31%
- % Expression induction, CHD1 ([2]; gene CHD1, HELICASE ACTIVITY and ATPase ACTIVITY): 40.46%
- % Expression induction, CHD2 ([2]; gene CHD2, HELICASE ACTIVITY and ATPase ACTIVITY): 42.59%
- % Expression induction, DDX1 ([2]; gene DDX1, HELICASE ACTIVITY and ATPase ACTIVITY): 26.92%
- % Expression induction, DDX10 ([2]; gene DDX10, HELICASE ACTIVITY and ATPase ACTIVITY): 27.49%
- % Expression induction, DDX25 ([2]; gene DDX25, HELICASE ACTIVITY and ATPase ACTIVITY): 16.24%
- % Expression induction, ERCC6 ([2]; gene ERCC6, HELICASE ACTIVITY and ATPase ACTIVITY): 74.50%
- % Expression induction, ERCC8 ([2]; gene ERCC8, DNA repair, Protein DNA Complex Assembly): 8.90%
- % Expression induction, FAS ([2]; gene FAS, APOPTOSIS INHIBITION): −15.36%
- % Expression induction, IL6 ([2]; gene IL6, INFLAMMATION, ANTI-INFLAMMATORY RESPONSE): −26.30%
- % Expression induction, MAPK8 ([2]; gene MAPK8, APOPTOSIS INHIBITION): −33.72%
- % Expression induction, MCL1 ([2]; gene MCL1, APOPTOSIS ACTIVATION): −17.76%
- % Expression induction, MED4 ([2]; gene MED4, DNA repair, Protein DNA Complex Assembly): 28.80%
- % Expression induction, MED13 ([2]; gene MED13, DNA repair, Protein DNA Complex Assembly): 56.75%
- % Expression induction, MED14 ([2]; gene MED14, DNA repair, Protein DNA Complex Assembly): 32.54%
- % Expression induction, MED17 ([2]; gene MED17, DNA repair, Protein DNA Complex Assembly): 46.25%
- % Expression induction, MNAT1 ([2]; gene MNAT1, DNA repair, Protein DNA Complex Assembly): 17.84%
- % Expression induction, MSH4 ([2]; gene MSH4, CELL CYCLE): 33.28%
- % Expression induction, MYC ([2]; gene MYC, APOPTOSIS ACTIVATION): 41.70%
- % Expression induction, NLRP3 ([2]; gene NLRP3, INFLAMMATION, ANTI-INFLAMMATORY RESPONSE): 36.49%
- % Expression induction, NLRP12 ([2]; gene NLRP12, INFLAMMATION, ANTI-INFLAMMATORY RESPONSE): 39.96%
- % Expression induction, PAPD7 ([2]; gene PAPD7, DNA POLYMERASE ACTIVITY): 65.27%
- % Expression induction, POLA1 ([2]; gene POLA1, DNA POLYMERASE ACTIVITY): 29.28%
- % Expression induction, POLD4 ([2]; gene POLD4, DNA POLYMERASE ACTIVITY): 31.74%
- % Expression induction, POLH ([2]; gene POLH, DNA POLYMERASE ACTIVITY): 28.96%
- % Expression induction, PTEN ([2]; gene PTEN, other genes involved in LONGEVITY): 26.04%
- % Expression induction, RAD17 ([2]; gene RAD17, CELL CYCLE): 0.21%
- % Expression induction, RAD21 ([2]; gene RAD21, CELL CYCLE): 18.22%
- % Expression induction, RAD50 ([2]; gene RAD50, CELL CYCLE): 37.66%
- % Expression induction, RAD54B ([2]; gene RAD54B, CELL CYCLE): 26.20%
- % Expression induction, SETX ([2]; gene SETX, HELICASE ACTIVITY and ATPase ACTIVITY): 65.33%
- % Expression induction, SH3GLB1 ([2]; gene SH3GLB1, APOPTOSIS ACTIVATION): 52.57%
- % Expression induction, SMARCA1 ([2]; gene SMARCA1, HELICASE ACTIVITY and ATPase ACTIVITY): 29.62%
- % Expression induction, SOCS2 ([2]; gene SOCS2, INFLAMMATION, ANTI-INFLAMMATORY RESPONSE): 56.13%
- % Expression induction, TAF1 ([2]; gene TAF1, DNA repair, Protein DNA Complex Assembly): 65.00%
- % Expression induction, TAF2 ([2]; gene TAF2, DNA repair, Protein DNA Complex Assembly): 25.12%
- % Expression induction, TAF5 ([2]; gene TAF5, DNA repair, Protein DNA Complex Assembly): 8.18%
- % Expression induction, TAX1BP1 ([2]; gene TAX1BP1, APOPTOSIS INHIBITION): 19.23%
- % Expression induction, TEP1 ([2]; gene TEP1, LONGEVITY, TELOMERE MAINTENANCE AND PROTECTION): 38.49%
- % Expression induction, TERF1 ([2]; gene TERF1, LONGEVITY, TELOMERE MAINTENANCE AND PROTECTION): 7.38%
- % Expression induction, TERF2IP ([2]; gene TERF2IP, LONGEVITY, TELOMERE MAINTENANCE AND PROTECTION): 21.63%
- % Expression induction, TINF2 ([2]; gene TINF2, LONGEVITY, TELOMERE MAINTENANCE AND PROTECTION): 13.37%
- % Expression induction, TP53BP2 ([2]; gene TP53BP2, APOPTOSIS ACTIVATION): 22.34%
- % Expression induction, WRN ([2]; gene WRN, HELICASE ACTIVITY and ATPase ACTIVITY): 35.25%
- % Expression induction, XIAP ([2]; gene XIAP, APOPTOSIS INHIBITION): 51.98%
- % Expression induction, XRCC2 ([2]; gene XRCC2, CELL CYCLE): 24.95%
